Data reported in ChEMBL document CHEMBL5661980, “Discovery of OSI-906: a selective and orally efficacious dual inhibitor of the IGF-1 receptor and insulin receptor” (Future Med Chem, 2009).

Experiments:
[1] = AUC last in CD-1 mouse measured at 25 mg/kg, po for 1 to 24 hrs by HPLC-MS/MS analysis; type: ADME, organism-based; conditions: in vivo, time 1-24 hrs
[2] = AUC (0 to infinity) in CD-1 mouse measured at 5 mg/kg, iv for 1 to 24 hrs by HPLC-MS/MS analysis; type: ADME, organism-based; conditions: in vivo, time 1-24 hrs
[3] = Plasma concentration in CD-1 mouse measured at 25 mg/kg, po for 24 hrs by HPLC-MS/MS analysis; type: ADME, organism-based
[4] = Plasma concentration in CD-1 mouse measured at 75 mg/kg, po for 24 hrs by HPLC-MS/MS analysis; type: ADME, organism-based
[5] = Cmax in CD-1 mouse measured at 250 mg/kg, po for 1 to 24 hrs by HPLC-MS/MS analysis; type: ADME, organism-based; conditions: in vivo, time 1-24 hrs
[6] = Oral bioavailability in Beagle dog measured at 5 mg/kg for 1 to 24 hrs by HPLC-MS/MS analysis; type: ADME, organism-based, Canis lupus familiaris; conditions: in vivo, time 1-24 hrs
Cytochrome P450 1A2 = biological target: T1, Cytochrome P450 1A2 (Homo sapiens, UniProt P05177); assay: Inhibition of CYP1A2 (unknown origin) in presence of NADPH generating system incubated for 20 mins by luminescent method; type: ADME
T1 sequence (P05177 whole entry): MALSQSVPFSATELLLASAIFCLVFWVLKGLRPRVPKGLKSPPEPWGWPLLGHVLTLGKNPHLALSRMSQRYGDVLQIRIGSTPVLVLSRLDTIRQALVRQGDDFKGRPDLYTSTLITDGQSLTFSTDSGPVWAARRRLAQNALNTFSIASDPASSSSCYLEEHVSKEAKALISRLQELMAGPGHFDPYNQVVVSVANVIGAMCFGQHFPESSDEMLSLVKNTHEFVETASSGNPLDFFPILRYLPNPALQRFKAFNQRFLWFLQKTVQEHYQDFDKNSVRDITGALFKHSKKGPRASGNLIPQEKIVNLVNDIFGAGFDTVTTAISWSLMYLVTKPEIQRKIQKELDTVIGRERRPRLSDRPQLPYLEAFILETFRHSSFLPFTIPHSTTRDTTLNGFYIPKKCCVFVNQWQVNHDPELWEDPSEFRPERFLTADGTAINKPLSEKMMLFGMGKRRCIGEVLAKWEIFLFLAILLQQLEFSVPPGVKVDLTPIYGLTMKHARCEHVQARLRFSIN

[7] = Cmax in Sprague-Dawley rat measured at 100 mg/kg, po for 1 to 24 hrs by HPLC-MS/MS analysis; type: ADME, organism-based; conditions: in vivo, time 1-24 hrs
[8] = Cmax in Beagle dog measured at 5 mg/kg, po for 1 to 24 hrs by HPLC-MS/MS analysis; type: ADME, organism-based, Canis lupus familiaris; conditions: in vivo, time 1-24 hrs
[9] = Toxicity in athymic nu/nu CD-1 mouse allografted with mouse 3T3 cells expressing human IGF-1R assessed as loss in body weight at 25 mg/kg, po for 12 days relative to control; type: organism-based, NIH3T3; conditions: in vivo, 288 h, time 12 day
[10] = Oral bioavailability in Sprague-Dawley rat measured at 12.5 mg/kg for 1 to 24 hrs by HPLC-MS/MS analysis; type: ADME, organism-based; conditions: in vivo, time 1-24 hrs
[11] = Cmax in CD-1 mouse measured at 75 mg/kg, po for 1 to 24 hrs by HPLC-MS/MS analysis; type: ADME, organism-based; conditions: in vivo, time 1-24 hrs

Q: Which results are given for `C[C@]1(O)C[C@@H](c2nc(-c3ccc4ccc(-c5ccccc5)nc4c3)c3c(N)nccn32)C1` [LINSITINIB]?
A: AUC(0-t) [1]: 26700 ng·h/mL; AUC(0-inf) [2]: 6950 ng·h/mL; concentration at 24 h [3]: 0.02 µM; concentration at 24 h [4]: 2.92 µM; Cmax [5]: 42 µM; bioavailability [6]: 64%; IC50 (Cytochrome P450 1A2): > 10 µM; Cmax [7]: 34.6 µM; Cmax [8]: 1.2 µM; Activity [9]: < 10%; bioavailability [10]: 74%; Cmax [11]: 16.8 µM
